Measurements reported in US10918891B2, “Cosmetic treatment method for the skin” (SYNTIVIA, priority 2016, dated 2021).

How the values were obtained:
Sirtuin-6 = test: Protein expression of Sirtuin-6 by immunofluorescence in NHDF; format: cell-based, human; conditions: (Ia) 10 ppm, 24 hours
Method: The cells used for this example are normal human Fibroblasts (NHDF).
In this example, the expression of Sirtuin-6 is measured at the protein level by the technique of immunofluorescence, after in vitro incubation of the cells in the absence or in the presence of compound (Ia) at a concentration of 10 ppm in an aqueous solution with 0.1% dimethylsulfoxide (DMSO).
The cells are cultured at the concentration of 5000 cells per well of 96-well plates, in the presence of standard culture medium for NHDF.
The contact with the compound (Ia) is carried out for 24 hours.
TGFβ is used as a positive control at the concentration of 10 ng/ml in an aqueous solution. A non-treated control is also carried out.
The supernatant is eliminated and the cells are prepared for the fluorescent marking. The cells are fixed in the presence of 3.7% formaldehyde, then permeabilised in a buffer containing 1% Triton®, finally the cells are rinsed and incubated in the presence of an anti-SIRT6 antibody (Abcam) for 2 hours. After washing, the cells are incubated in the presence of the secondary antibody (Alexa GAR488, Invitrogen) for 1 h. After washing, the cells are incubated in the presence of DAPI for 10 min, then rinsed once again.
The fluorescence is then quantified using an automated microscope (ArrayScan® (Cellomics®)).

[1] = test system: explants of human skin (NATIVESKIN, Genoskin); test: Morphological study (haematoxylin and eosin) of human skin explants after repeated UVA irradiation; format: cell-based; conditions: skin explant; topical (Ia) 100 ppm; three UVA stresses 50 J/cm2; FIG. 3
Method: In these examples, the protective properties of the compound (Ia) against the damage caused to the DNA and to the extracellular matrix by repeated UVA irradiation, are measured on explants of human skin (NATIVESKIN, Genoskin).
Upon reception of the explants, the latter are topically coated with Carbopol® (Lubrizol)+DMSO for the non-UVA control (CTL without stress) and for the control with stress by UVAs (CTL UVA), and with Carbopol®+compound (Ia) at 100 ppm for the test.
Over three days, the cells are subjected to three stresses with UVAs at a rate of 50 joules per square centimetre.
The first irradiation takes place 24 hours after the treatments. The products are present before, during and after the irradiation. The control without stress is wrapped in aluminium and also placed in the irradiator.
During the irradiation, the explants inserted are disposed in a petri dish with PBS. Fresh medium (Genoskin Culture medium) is added after the irradiation.
After the third day of irradiation, the explants are cultivated for 24 hours, then collected and fixed for 48 hours in formalin (Sigma). The samples are included in paraffin and cut.
A morphological study of the skin is implemented.
The samples of explant are deparaffined, rehydrated and then they are subjected to colouration with haematoxylin and with eosin in order to observe the in-depth effect of the compound (Ia) on the skin. […]

MMP-9 = test: Gene expression of MMP-9 by quantitative RT-PCR in NHEK; format: cell-based, human; conditions: (Ia) 3 ppm (10^−5M), 24 hours
Method: In these examples, the expression of the messenger RNA is measured by the technique of quantitative RT-PCR (reverse transcription followed by polymerase chain reaction), after incubation in vitro of the various cell types in the absence or in the presence of compound (Ia).
This study was carried out on normal human dermal Fibroblasts (NHDF) or normal human epidermal Keratinocytes (NHEK). The compound (Ia) is tested at 10^−5M in an aqueous solution with 0.1% dimethylsulfoxide.
The cells are cultured at the concentration of 10,000 cells per well of 96-well plates, in the presence of standard culture medium according to the cell type.
The compound (Ia) is then added at the concentration (3 ppm), for 24 hours.
The supernatant is eliminated and the cells are taken up in a specific buffer for the extraction of the messenger RNA (mRNA). The mRNA is purified and reverse transcribed in the presence of a commercial reverse transcriptase.
The complementary DNA (cDNA) obtained is quantified by RT-PCR, by means of suitable primers. The rate of expression of the mRNA is normalised with 5 reference genes.
The cells used for this example are normal human keratinocytes (NHEK).

NHDF cells = test: Cellular viability (WST1) of NHDF exposed to cigarette extract; format: cell-based, human; conditions: (Ia) 10 ppm pretreatment 24 h and treatment 24 h; cigarette extract diluted 1/50; WST1, 450 nm; Control 1.618, Cigarette extract 1.357
Method: The cells used for this example are normal human Fibroblasts (NHDF) and normal human epidermal Keratinocytes (NHEK).
A cigarette extract is prepared using a laboratory device allowing the sucking up of cigarette smoke via a suction system, and the controlled bubbling of this cigarette smoke into the solution studied, which is then filtered on a 0.22 μm filter made of Polyether sulfone (PES).
The cells are cultured at the concentration of 7000 cells per well of 96-well plates (NHDF) or 8000 cells per well (NHEK), in the presence of standard culture medium for NHDF or NHEK (for 24 h 37° C., 5% CO2).
After pretreatment of the cells with the compound (Ia) at 10 ppm for 24 h the cells are treated with the cigarette extract diluted to 1/50th in the culture medium with or without the compound (Ia) at 10 ppm for 24 h. The absorbance is read a first time at […] (Multiskan®).
Then, 10 μl of WST1 (Roche) are introduced into the medium and the cells are incubated for 3 hours.
The absorbance at 450 nm is measured after the addition of WST1 (Multiskan®) and the results obtained, in terms of cellular viability, are shown in tables 11 and 12 below. The treated cells (Cigarette extract+(Ia)) are compared to the untreated cells (Control) or to the cells having only undergone exposure to the cigarette extract (Cigarette extract).

Cc1ncc(CO)c(CNC(=O)/C=C/c2ccc(O)c(O)c2)c1O [Compound (Ia)]
Protein expression of the Sirtuin-6 compared to the basal level, based on 100% (Sirtuin-6): 113.69%
Morphology of the skin (epidermal barrier, structure of the dermis) after UVA [1]: the epidermal barrier is preserved from the degradation by the UVAs and the structure of the dermis is preserved
Reduction of the gene expression compared to the basal level based on 100% (MMP-9) (MMP-9): −75%
Cellular viability on NHDF (Optical density) (NHDF cells): 1.674 Optical density
